Experimental data from patent US20060025477A1, “Analogs of isovaleramide, a pharmaceutical composition including the same, and a method of treating central nervous system conditions or diseases” (priority 2004, published 2006).

Columns and labels:
[1] = test system: Frings audiogenic seizure-susceptible mouse; test: Frings audiogenic seizure assay (protection against sound-induced tonic hindlimb extension); assay type: in vivo; conditions: Mus musculus, po, Table 5; read-out: ED50 Oral Administration
Procedure: The anticonvulsant activity of compound S ((S)-(+)-2,2-dimethylcyclopropane-carboxamide) was tested using the Frings audiogenic seizure-susceptible mouse. […] Compound S, which is a solution at 300 mg/kg and a suspension at 600 mg/kg, was administered to the mice at the doses indicated in Tables 1-3. Compound S was obtained from Sigma-Aldrich Chemical Co. (Aldrich catalog number: 43,463-9).
At the time of testing, individual mice were placed into a round Plexiglas chamber and exposed to a sound stimulus of 110 decibels, 11 kHz, for 20 seconds. Mice not displaying tonic hindlimb extensions upon exposure to the sound stimulus were considered protected. In addition, the seizure score for each mouse was recorded as: (1) running for less than 10 seconds; (2) running for greater than 10 seconds; (3) clonic activity of limbs and/or vibrissae; (4) forelimb extension/hindlimb flexion; and (5) hindlimb extension. The average seizure score was calculated for each group of mice used in the dose-response study.
The anticonvulsant activity of compounds I, W, X, and AA was tested using the Frings audiogenic seizure-susceptible mouse model as described in Example 23. […] The therapeutic index relates to separation between therapeutic efficacy and CNS toxicity as measured by motor impairment in the rotarod performance test.

male Swiss-Webster mice [2] = test: Rotarod impairment test before MES testing; assay type: in vivo, mouse; conditions: 300 mg/kg p.o.
Procedure: (§1) Test compounds (Compound S, Compound W, the S-enantiomer of Compound AA, the R-enantiomer of Compound AA, Compound HH, Compound JJ, and Compound MM) were dissolved in saline containing 0.5% methylcellulose. To determine time to peak effect, 300 mg/kg of each of the test compounds was suspended in 0.5% methylcellulose in saline and administered orally to a group of 20 mice. For comparative purposes, isovaleramide was also tested. At various times (0.25, 0.5, 1, 2, and 4 hours) after p.o. administration, individual mice were placed on the rotarod and tested for their ability to maintain balance on a rotating (6 rpm) 2.5-cm diameter knurled rod for 60 seconds. Mice that fell three times in this 60-second trial were considered impaired.

male Swiss-Webster mice [3] = test: Maximal electroshock (MES)-induced tonic extension seizure test; assay type: in vivo, mouse; conditions: 300 mg/kg p.o.
Procedure: In the MES test, a substance is administered orally (p.o.) and is tested for efficacy against maximal electroshock (MES)-induced tonic extension seizures. Adult male Swiss-Webster mice (each 20-25 g of body weight) were used. The mice were housed in Association for the Assessment and Accreditation of Laboratory Animal Care-approved facilities under a constant 12-hour light/dark cycle with a constant temperature of 21° C.-23° C. and a relative humidity of 30% to 50%. All animals were permitted free access to standard laboratory chow (Prolab RMH 3000; PMI Nutrition International, LLC, Brentwood, Mo.) and water, except when removed from their home cages for testing. All mice were handled in a manner consistent with the recommendations in the National Research Council Publication Guide for the Care and Use of Laboratory Animals.
as §1
Following rotarod testing, the mice were tested in the maximal electroshock (MES)-induced tonic extension seizures test. For this test, a drop of electrolyte solution (0.5% butacaine sulfate in 0.9% saline) was placed on the eyes of each mouse prior to placement of corneal electrodes. The mice were restrained by gripping the loose skin on their dorsal surface and saline-coated corneal electrodes were held lightly against the two corneas. Each mouse received an electrical stimulation (50 mAmp, 50 Hz current, 0.2 sec) delivered through a silver-coated corneal electrode using an electroshock machine as originally described by Woodbury and Davenport (Arch Int. Pharmacodyn. Ther., 92:97-104, 1952). […] A tonic seizure was defined as a hindlimb extension in excess of 90 degrees from the plane of the body. Results were treated in a quantal manner. […] ED50's (the effective dose at which 50% of the mice were protected) were determined for Compounds W and HH by administering various doses (30, 100, 300 mg/kg) at the previously determined time to peak effect, as shown in Table 11.

Frings mice = test: Rotarod test of motor impairment (toxicity) in the Frings study; assay type: in vivo; conditions: Frings, mouse, in vivo, po
Procedure: At each dose, the mice were also tested on a rotarod for testing of motor impairment (toxicity). Testing for motor impairment on the rotarod involved placing a mouse for a three-minute trial period on a one-inch diameter rod rotating at six revolutions per minute. If the mouse fell off of the rotating rod three times within the three-minute time period, the dose was considered a toxic response.
The therapeutic index relates to separation between therapeutic efficacy and CNS toxicity as measured by motor impairment in the rotarod performance test.

SMILES | ED50 [1] | # I/# T (impaired/tested) (male Swiss-Webster mice [2]; 0.25 hours) | # I/# T (impaired/tested) (male Swiss-Webster mice [2]; 0.5 hours) | # I/# T (impaired/tested) (male Swiss-Webster mice [2]; 1 hour) | # I/# T (impaired/tested) (male Swiss-Webster mice [2]; 2 hours) | # P/# T (protected/tested) (male Swiss-Webster mice [3]; 0.25 hours) | # P/# T (protected/tested) (male Swiss-Webster mice [3]; 0.5 hours) | # P/# T (protected/tested) (male Swiss-Webster mice [3]; 1 hour) | # P/# T (protected/tested) (male Swiss-Webster mice [3]; 2 hours) | # P/# T (protected/tested) (male Swiss-Webster mice [3]; 4 hours) | Therapeutic Index (Frings mice) | # I/# T (impaired/tested) (male Swiss-Webster mice [2]; 4 hours)
CC(C)C(C)C(N)=O (racemic) [AA (cis and trans mixture)] | 140 mg/kg | – | – | – | – | – | – | – | – | – | – | –
CC(C)[C@H](C)C(N)=O [AA (R- enantiomer)] | 84.2 mg/kg | 3/4 | 3/4 | 0/4 | 3/4 | 0/4 | 0/4 | 0/4 | 0/4 | 0/4 | >4-fold | –
CC(C)[C@@H](C)C(N)=O [AA (S- enantiomer)] | 84.1 mg/kg | 0/4 | 1/4 | 0/4 | 0/4 | 3/4 | 0/4 | 1/4 | 1/4 | 0/4 | >4-fold | 0/4
CC(C)CC(=O)NCC(N)=O [Compound I] | < 1000 mg/kg | – | – | – | – | – | – | – | – | – | – | –
CC(C)C(C)(C)C(N)=O [Compound JJ] | – | 1/4 | 2/4 | 1/4 | 0/4 | 1/4 | 0/4 | 0/4 | 0/4 | 0/4 | – | 0/4
